Measured values: BindingDB's records for doi:10.1016/j.bmc.2007.07.054 (Yeungnam University, 2007)
pIC50: −log10 of the molar value.

Experiments:
[1] = molecular target: T1, Group 10 secretory phospholipase A2 (Homo sapiens, UniProt O15496); test: Inhibition of human cloned sPLA2-10 expressed in HEK293 cells
T1 sequence (O15496 whole entry): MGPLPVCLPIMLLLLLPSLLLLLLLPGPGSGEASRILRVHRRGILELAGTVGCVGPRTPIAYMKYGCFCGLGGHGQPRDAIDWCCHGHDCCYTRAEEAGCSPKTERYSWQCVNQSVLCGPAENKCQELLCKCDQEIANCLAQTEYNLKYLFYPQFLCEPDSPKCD

[2] = molecular target: T2, Cytosolic phospholipase A2 (Homo sapiens, UniProt P47712); test: Inhibition of human cloned cPLA2 expressed in HEK293 cells
T2 sequence (P47712 whole entry): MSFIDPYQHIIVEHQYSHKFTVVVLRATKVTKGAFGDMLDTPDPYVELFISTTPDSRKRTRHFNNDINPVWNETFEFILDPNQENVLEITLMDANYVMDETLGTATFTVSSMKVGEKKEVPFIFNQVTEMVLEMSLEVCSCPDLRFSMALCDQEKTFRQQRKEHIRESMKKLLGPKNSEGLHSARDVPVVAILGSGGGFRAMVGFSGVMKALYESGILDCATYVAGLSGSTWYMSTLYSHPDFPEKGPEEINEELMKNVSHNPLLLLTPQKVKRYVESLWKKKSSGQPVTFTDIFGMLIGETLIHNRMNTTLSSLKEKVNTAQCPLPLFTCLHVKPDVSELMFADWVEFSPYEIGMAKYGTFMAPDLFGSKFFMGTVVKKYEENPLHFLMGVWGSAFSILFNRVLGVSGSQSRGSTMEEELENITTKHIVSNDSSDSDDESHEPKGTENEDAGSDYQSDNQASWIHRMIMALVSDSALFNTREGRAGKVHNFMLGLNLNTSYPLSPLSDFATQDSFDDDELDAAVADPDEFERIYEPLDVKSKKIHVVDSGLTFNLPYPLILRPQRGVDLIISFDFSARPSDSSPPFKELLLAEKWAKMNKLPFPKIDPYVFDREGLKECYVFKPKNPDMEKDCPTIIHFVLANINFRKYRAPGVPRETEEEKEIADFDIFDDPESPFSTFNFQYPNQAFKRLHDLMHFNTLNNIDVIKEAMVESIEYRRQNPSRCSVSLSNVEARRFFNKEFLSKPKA

Phospholipase A2 = Phospholipase A2 (Rattus norvegicus, UniProt P04055); test: Inhibition of rat cloned sPLA2-1B expressed in HEK293 cells
Phospholipase A2, sequence (P04055 whole entry): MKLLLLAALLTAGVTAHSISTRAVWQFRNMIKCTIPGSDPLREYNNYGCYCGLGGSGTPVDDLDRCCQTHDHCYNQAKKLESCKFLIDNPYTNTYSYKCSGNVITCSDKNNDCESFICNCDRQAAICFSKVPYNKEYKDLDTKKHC

Measured: pIC50

O=c1cc(O)cc2oc(-c3ccc(Oc4cc(-c5cc(O)c6c(=O)cc(O)cc-6o5)ccc4O)cc3)cc(O)c1-2
< 4.00: all assays above

O=c1cc(O)cc2oc(-c3ccc(O)c(-c4c(O)cc(O)c5c(=O)cc(-c6ccc(O)cc6)oc45)c3)cc(O)c1-2
< 4.00: all assays above
